Columns and labels:
[1] = Storage stability: impurities/degradants by HPLC; type: physicochemical
Protocol: Particle size and globule size were likewise measured at the start of storage and at the one month or three month interval, respectively, according to USP 729. Impurities were also measured at the start of storage and at the one month or three month intervals, respectively. Viscosity was also measured at the start of storage and at the one month or three month intervals, respectively. Osmolality was also measured at the start of storage and at the one month or three month intervals, respectively, according to USP 785. Briefly, to measure betamethasone dipropionate and betamethasone content as well as impurities/degradants, HPLC was used. […] The 50 mL tubes were then removed from the heat and vortex mixed again for 30 seconds. If necessary, the tubes were returned to the water bath to prevent cooling. […] The tubes were then centrifuged for 30 minutes at 12,000 RPM and supernatant was transferred to a HPLC vial for analysis. The HPLC system was rinsed well with 50:50 acetonitrile:water to remove buffer salts after each run. […] HPLC was run using a Hypersil ODS 10×30 mm, 3 μm column as the Guard Column and a Hypersil ODS 3×150 mm, 3 μm column as the Analytical Column. The column temperature was maintained at 35° C. with a runtime of 45 minutes, a flow rate of 0.5 mL/minute, an injection volume of 3 μL, an autosampler temperature of 30° C., and using a 254 nm (UV absorbance) detector and collecting PDA from 200 nm to 400 nm for identification testing. […] Mobile Phase B was prepared as 88:12 methanol:acetonitrile. […] All mobile phase solutions were mixed well and degassed prior to use. […] A Working Standard Solution was prepared from 3.0 mL of the IS Stock Solution and 8.0 mL of the BD Stock in a 50 mL volumetric flask to which 150 mg of benzyl alcohol reference standard was added and diluent added to volume followed by mixing well. […] System suitability requirements included those in Table 38. The Ratio RT (RRT) in Table 39 can be calculated from the ratio of the sample retention time to the mean retention time of the bracketing standards.

[2] = Recovery of force-degraded MFM spiked into placebo cream and of active cream (0.1% MFM), HPLC; type: physicochemical
Protocol: MFM neat and degraded materials were spiked into placebo cream (lot #2020-11-01) to investigate potential partitioning effects and peak interferences and to compare spiked and active cream samples by the procedure in Table 50 with the exception that for acid, base and peroxide degradations, the additions of HCl, NaOH and peroxide were calculated accordingly.
Percent recovery of Force-Degraded Materials Spiked into Placebo is provided in Table 51 below while recovery of active cream formulation (0.1% MFM) is provided in Table 52 below.

[3] = stored at 25° C./60% RH, 1 Month, Mean
[4] = stored at 25° C./60% RH, 1 Month, Prep #1
[5] = stored at 25° C./60% RH, 1 Month, Prep #2
[6] = stored at 25° C./60% RH, 3 Month, Mean
[7] = stored at 25° C./60% RH, 3 Month, Prep #1
[8] = stored at 25° C./60% RH, 3 Month, Prep #2
[9] = stored at 30° C./65% RH, 1 Month, Mean
[10] = stored at 30° C./65% RH, 1 Month, Prep #1
[11] = stored at 30° C./65% RH, 1 Month, Prep #2
[12] = stored at 30° C./65% RH, 3 Month, Mean
[13] = stored at 30° C./65% RH, 3 Month, Prep #1
[14] = stored at 30° C./65% RH, 3 Month, Prep #2
[15] = stored at 40° C./75% RH, 1 Month, Mean
[16] = stored at 40° C./75% RH, 1 Month, Prep #1
[17] = stored at 40° C./75% RH, 1 Month, Prep #2
[18] = stored at 40° C./75% RH, 3 Month, Mean
[19] = stored at 40° C./75% RH, 3 Month, Prep #1
[20] = stored at 40° C./75% RH, 3 Month, Prep #2
[21] = stored at 25° C./60% RH, Initial, Mean
[22] = stored at 25° C./60% RH, Initial, Prep #2
[23] = stored at 30° C./65% RH, Initial, Mean
[24] = stored at 30° C./65% RH, Initial, Prep #2
[25] = stored at 40° C./75% RH, Initial, Mean
[26] = stored at 40° C./75% RH, Initial, Prep #2

Impurity (% of related substances) in Betamethasone Dipropionate Cream Formulation [1, 3] | Impurity (% of related substances) in Betamethasone Dipropionate Cream Formulation [1, 4] | Impurity (% of related substances) in Betamethasone Dipropionate Cream Formulation [1, 5] | Impurity (% of related substances) in Betamethasone Dipropionate Cream Formulation [1, 6] | Impurity (% of related substances) in Betamethasone Dipropionate Cream Formulation [1, 7] | Impurity (% of related substances) in Betamethasone Dipropionate Cream Formulation [1, 8] | Impurity (% of related substances) in Betamethasone Dipropionate Cream Formulation [1, 9] | Impurity (% of related substances) in Betamethasone Dipropionate Cream Formulation [1, 10] | Impurity (% of related substances) in Betamethasone Dipropionate Cream Formulation [1, 11] | Impurity (% of related substances) in Betamethasone Dipropionate Cream Formulation [1, 12] | Impurity (% of related substances) in Betamethasone Dipropionate Cream Formulation [1, 13] | Impurity (% of related substances) in Betamethasone Dipropionate Cream Formulation [1, 14] | Impurity (% of related substances) in Betamethasone Dipropionate Cream Formulation [1, 15] | Impurity (% of related substances) in Betamethasone Dipropionate Cream Formulation [1, 16] | Impurity (% of related substances) in Betamethasone Dipropionate Cream Formulation [1, 17] | Impurity (% of related substances) in Betamethasone Dipropionate Cream Formulation [1, 18] | Impurity (% of related substances) in Betamethasone Dipropionate Cream Formulation [1, 19] | Impurity (% of related substances) in Betamethasone Dipropionate Cream Formulation [1, 20] | Impurity (% of related substances) in Betamethasone Dipropionate Cream Formulation [1, 21] | Impurity (% of related substances) in Betamethasone Dipropionate Cream Formulation [1, 22] | Structure (SMILES) | also measured
0.09% | 0.08% | 0.10% | 0.22% | 0.19% | 0.25% | 0.15% | 0.13% | 0.17% | 0.50% | 0.44% | 0.56% | 0.53% | 0.48% | 0.58% | 1.99% | 1.86% | 2.12% | – | – | CCC(=O)OCC(=O)C1(O)C(C)CC2C3CCC4=CC(=O)C=CC4(C)C3(F)C(O)CC21C (stereo not drawn) [Lot 4] | –
– | – | – | – | – | – | – | – | – | – | – | – | – | – | – | – | – | – | – | – | C[C@@H]1C[C@H]2[C@@H]3CCC4=CC(=O)C=C[C@]4(C)[C@@]3(Cl)[C@@H](O)C[C@]2(C)[C@@]1(OC(=O)c1ccco1)C(=O)CCl.O [Mometasone Furoate Momohydrate] | Difference with Placebo (neat vs spiked recovery) ([2]; 0.1N HC1 (1 hour)): 5.23%; Difference with Placebo (neat vs spiked recovery) ([2]; 0.1N NaOH (1 hour)): 0.13%; Difference with Placebo (neat vs spiked recovery) ([2]; 3% H2O2 (1 hour)): 5.20%; Difference with Placebo (neat vs spiked recovery) ([2]; 60° C. (5 days)): 4.96%; Difference with Placebo (neat vs spiked recovery) ([2]; Control (neat MFM)): 5.87%; Difference with Placebo (neat vs spiked recovery) ([2]; White light (5 days)): 5.29%
0.34% | 0.31% | 0.37% | 0.49% | 0.43% | 0.54% | 0.43% | 0.38% | 0.48% | 0.73% | 0.66% | 0.79% | 0.64% | 0.59% | 0.68% | 0.93% | 0.86% | 0.99% | 0.18% | 0.20% | CCC(=O)OC1(C(=O)CO)C(C)CC2C3CCC4=CC(=O)C=CC4(C)C3(F)C(O)CC21C (stereo not drawn) [Lot 5] | Impurity (% of related substances) in Betamethasone Dipropionate Cream Formulation ([1]; stored at 25° C./60% RH, Initial, Prep #1): 0.16%; Impurity (% of related substances) in Betamethasone Dipropionate Cream Formulation [1, 23]: 0.18%; Impurity (% of related substances) in Betamethasone Dipropionate Cream Formulation ([1]; stored at 30° C./65% RH, Initial, Prep #1): 0.16%; Impurity (% of related substances) in Betamethasone Dipropionate Cream Formulation [1, 24]: 0.20%; Impurity (% of related substances) in Betamethasone Dipropionate Cream Formulation [1, 25]: 0.18%; Impurity (% of related substances) in Betamethasone Dipropionate Cream Formulation ([1]; stored at 40° C./75% RH, Initial, Prep #1): 0.16%; Impurity (% of related substances) in Betamethasone Dipropionate Cream Formulation [1, 26]: 0.20%
– | – | – | – | – | – | – | – | – | – | – | – | – | – | – | – | – | – | 0.12% | 0.12% | CCC(=O)OCC(=O)[C@@]1(OC(=O)CC)[C@@H](C)C[C@H]2[C@@H]3CC(Br)C4=CC(=O)C=C[C@]4(C)[C@@]3(F)[C@@H](O)C[C@@]21C (stereo partly drawn) [Lot 9] | Impurity (% of related substances) in Betamethasone Dipropionate Cream Formulation [1, 23]: 0.12%; Impurity (% of related substances) in Betamethasone Dipropionate Cream Formulation [1, 24]: 0.12%; Impurity (% of related substances) in Betamethasone Dipropionate Cream Formulation [1, 25]: 0.12%; Impurity (% of related substances) in Betamethasone Dipropionate Cream Formulation [1, 26]: 0.12%

Reference: patent US20230277452A1, “COMPOSITIONS, DEVICES AND METHODS FOR TREATING NASAL, OTIC AND OTHER TISSUE INFECTION AND/OR INFLAMMATION” (priority 2020, published 2023)
